Experimental findings from patent US8933224B2, “Triazine derivatives” (Pfizer Inc., priority 2013, dated 2015) are described below.

Where only a bound is given, the exact number is not on record here.

The target of this test is rat PDE10 enzyme (Rattus norvegicus (Rat), UniProt Q9QYJ6). The test is described as follows: PDE10 scintillation proximity assay (SPA), inhibition of rat PDE10 enzyme activity. Type of test: biochemical. The settings on record: geometric mean of 2-4 determinations unless otherwise indicated (b: ≧5 determinations; c: single determination). As to the method: PDE10 activity was measured using a scintillation assay (SPA-based method) similar to that previously described by Seeger, T. F. et al., Brain Research 985 (2003) 113-126. The compounds' relative activity as PDE10 inhibitors was investigated by assaying a fixed amount of enzyme in the presence of the test compound and low substrate concentration (cAMP) such that an IC50 could be determined. […] The assay is performed in a 384-well format with 50 μL assay buffer (50 mM TRIS pH 7.5; 1.3 mM MgCl2; 0.01% Brij) containing enough PDE10 to convert ˜20% of 20 nM ^3H-cAMP, and a range of inhibitors. Reactions are incubated for 30 minutes at 25° C. The addition of 20 μL of 8 mg/ml yttrium silicate SPA beads (PerkinElmer) stops the reaction. The plates are sealed (TopSeal, PerkinElmer) and the beads are allowed to settle for 8 hrs, after which they are read on the Trilux Microbeta overnight. ^1Rat enzyme preparation:^2Human enzyme preparation:
The recombinant Bacmid was isolated and used to transfect sf9 insect cells to generate a viral stock. To generate cell paste for purification, sf21 cells were infected with the virus stock and cells were harvested 72 hours after infection as described in Seeger, T. F. et al., Brain Research 985 (2003) 113-126. Insect cell paste was lysed and after centrifugation, the supernatant was chromatographed on Ni-NTA agarose (Qiagen) followed by Mono Q (GE Healthcare Life Sciences) as described in Seeger, T. F. et al., Brain Research 985 (2003) 113-126.

Chain of rat PDE10 enzyme (Q9QYJ6 24-794): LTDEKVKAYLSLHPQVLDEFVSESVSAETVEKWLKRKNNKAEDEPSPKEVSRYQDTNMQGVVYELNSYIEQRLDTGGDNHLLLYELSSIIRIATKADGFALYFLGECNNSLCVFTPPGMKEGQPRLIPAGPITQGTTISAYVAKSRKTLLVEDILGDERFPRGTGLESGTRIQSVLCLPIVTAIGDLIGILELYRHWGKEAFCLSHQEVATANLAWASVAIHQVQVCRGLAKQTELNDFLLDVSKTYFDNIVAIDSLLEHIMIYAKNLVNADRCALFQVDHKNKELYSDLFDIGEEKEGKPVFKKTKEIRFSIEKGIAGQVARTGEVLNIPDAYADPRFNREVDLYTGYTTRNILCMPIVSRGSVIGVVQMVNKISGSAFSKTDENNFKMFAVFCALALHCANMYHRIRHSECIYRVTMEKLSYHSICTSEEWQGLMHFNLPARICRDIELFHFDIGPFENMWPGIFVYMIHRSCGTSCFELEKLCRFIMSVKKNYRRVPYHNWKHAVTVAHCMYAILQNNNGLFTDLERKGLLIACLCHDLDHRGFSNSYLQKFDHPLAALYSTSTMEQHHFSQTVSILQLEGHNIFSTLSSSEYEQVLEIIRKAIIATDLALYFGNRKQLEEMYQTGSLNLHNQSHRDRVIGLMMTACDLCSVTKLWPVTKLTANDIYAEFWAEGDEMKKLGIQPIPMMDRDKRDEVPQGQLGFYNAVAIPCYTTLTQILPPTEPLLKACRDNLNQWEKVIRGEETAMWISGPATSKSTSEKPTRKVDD

Turning to `Cc1ccc2c(n1)CN(c1ncnn3c(C)nc(-c4ccccc4F)c13)CC2` [Example 73, 7-[5-(2-fluorophenyl)-7-methylimidazo[5,1-f][1,2,4]triazin-4-yl]-2-methyl-5,6,7,8-tetrahydro-1,7-naphthyridine], the IC50 came to 6.81 nM.
Next, `Cc1nc([C@@H]2CCOC2)c2c(N3CCc4nc(C5CC5)nc(OC(F)F)c4C3)ncnn12` [Example 141, 2-cyclopropyl-4-(difluoromethoxy)-6-{7-methyl-5-[(3S)-tetrahydrofuran-3-yl]imidazo[5,1-f][1,2,4]triazin-4-yl}-5,6,7,8-tetrahydropyrido[4,3-d]pyrimidine]: 0.142 nM; `Cc1nc2c(c(OC(F)F)n1)CN(c1ncnn3c(C)nc(-c4ccccc4F)c13)CC2` [Example 125, 4-(difluoromethoxy)-6-[5-(2-fluorophenyl)-7-methylimidazo[5,1-f][1,2,4]triazin-4-yl]-2-methyl-5,6,7,8-tetrahydropyrido[4,3-d]pyrimidine]: 6.4 nM.
Consider `Cc1nc([C@H]2CCCO2)c2c(N3CCc4noc(C5CC5)c4C3)ncnn12` [Example 78, 4-(3-cyclopropyl-6,7-dihydro[1,2]oxazolo[4,3-c]pyridin-5(4H)-yl)-7-methyl-5-[(2R)-tetrahydrofuran-2-yl]imidazo[5,1-f][1,2,4]triazine], for which 3.89 nM corresponded to half-maximal inhibition (IC50).
Next, `CCOc1nc(C)nc2c1CN(c1ncnn3c(C)nc(-c4ccccc4F)c13)CC2` [Example 123, 4-ethoxy-6-[5-(2-fluorophenyl)-7-methylimidazo[5,1-f][1,2,4]triazin-4-yl]-2-methyl-5,6,7,8-tetrahydropyrido[4,3-d]pyrimidine]: 1.43 nM; `COc1ccc2c(n1)CN(c1ncnn3c(C)nc(-c4ccccc4F)c13)CC2` [Example 69, 7-[5-(2-fluorophenyl)-7-methylimidazo[5,1-f][1,2,4]triazin-4-yl]-2-methoxy-5,6,7,8-tetrahydro-1,7-naphthyridine]: 7.3 nM; `Cc1nc(C2CC2)nc2c1CN(c1ncnn3c(C)nc([C@@H]4CCOC4)c13)CC2` [Example 41, 2-cyclopropyl-4-methyl-6-{7-methyl-5-[(3S)-tetrahydrofuran-3-yl]imidazo[5,1-f][1,2,4]triazin-4-yl}-5,6,7,8-tetrahydropyrido[4,3-d]pyrimidine]: less than 0.175 nM.
`COc1cc2c(cc1OC)CN(c1ncnn3c(C)nc(CC(C)C)c13)CC2` [Example 64, 2-(5-isobutyl-7-methylimidazo[5,1-f][1,2,4]triazin-4-yl)-6,7-dimethoxy-1,2,3,4-tetrahydroisoquinoline] registered an IC50 of 1.18 nM.
In the case of `Cc1nc(CC(C)C)c2c(N3CCc4noc(C5CC5)c4C3)ncnn12` [Example 94, 4-(3-cyclopropyl-6,7-dihydro[1,2]oxazolo[4,3-c]pyridin-5(4H)-yl)-7-methyl-5-(2-methylpropyl)imidazo[5,1-f][1,2,4]triazine] it was 2.89 nM; in that of `Cc1nc(C2CCOCC2)c2c(N3CCc4[nH]nc(C(C)C)c4C3)ncnn12` [Example 108, 7-methyl-4-(3-(propan-2-yl)-1,4,6,7-tetrahydro-5H-pyrazolo[4,3-c]pyridin-5-yl]-5-(tetrahydro-2H-pyran-4-yl)imidazo[5,1-f][1,2,4]triazine], 0.902 nM.
`CCc1onc2c1CN(c1ncnn3c(C)nc([C@@H]4CCOC4)c13)CC2` [Example 31] had an IC50 of 3.73 nM.
`Cc1nc(-c2ccccc2F)c2c(N3CCc4c(c(C(C)C)nn4C)C3)ncnn12` [Example 43, 5-(2-fluorophenyl)-4-(3-isopropyl-1-methyl-1,4,6,7-tetrahydro-5H-pyrazolo[4,3-c]pyridin-5-yl)-7-methylimidazo[5,1-f][1,2,4]triazine] showed an IC50 of 0.465 nM.
Molecule `Cc1nc(-c2ccccc2F)c2c(N3CCc4noc(C5CC5)c4C3)ncnn12` [Example 46, 4-(3-cyclopropyl-6,7-dihydroisoxazolo[4,3-c]pyridin-5(4H)-yl)-5-(2-fluorophenyl)-7-methylimidazo[5,1-f][1,2,4]triazine] returned an IC50 of 1.98 nM.
`COc1cc2c(cc1OC)CN(c1ncnn3c(C)nc(C4CCOCC4)c13)CC2` [Example 59, 6,7-dimethoxy-2-[7-methyl-5-(tetrahydro-2H-pyran-4-yl)imidazo[5,1-f][1,2,4]triazin-4-yl]-1,2,3,4-tetrahydroisoquinoline] returned an IC50 of 3.1 nM.
Regarding `[2H]C([2H])([2H])Oc1nc(C2CC2)nc2c1CN(c1ncnn3c(C)nc([C@@H]4CCOC4)c13)CC2` [Example 173], the midpoint of inhibition, the IC50, lay at 0.136 nM.
`COc1cc2c(cc1OC)CN(c1ncnn3c(C)nc([C@@H]4CCOC4)c13)CC2` [Example 15, 6,7-dimethoxy-2-{7-methyl-5-[(3S)-tetrahydrofuran-3-yl]imidazo[5,1-f][1,2,4]triazin-4-yl}-1,2,3,4-tetrahydroisoquinoline] displayed a concentration for half-maximal inhibition (IC50) of 0.716 nM.
In the case of `COc1ccc2c(c1OC)CN(c1ncnn3c(C)nc([C@@H]4CCOC4)c13)CC2` [Example 17, 7,8-dimethoxy-2-{7-methyl-5-[(3S)-tetrahydrofuran-3-yl]imidazo[5,1-f][1,2,4]triazin-4-yl}-1,2,3,4-tetrahydroisoquinoline] it was less than 0.24 nM; in that of `Cc1nc([C@@H]2CCOC2)c2c(N3CCc4nc(C5CC5)ncc4C3)ncnn12` [Example 16, 2-cyclopropyl-6-{7-methyl-5-[(3S)-tetrahydrofuran-3-yl]imidazo{5,1-f][1,2,4]triazin-4-yl}-5,6,7,8-tetrahydropyrido[4,3-d]pyrimidine], 6.55 nM.
`CCc1nc(C2CC2)nc2c1CN(c1ncnn3c(C)nc(-c4ccccc4F)c13)CC2` [Example 136, 2-cyclopropyl-4-ethyl-6-[5-(2-fluorophenyl)-7-methylimidazo[5,1-f][1,2,4]triazin-4-yl]-5,6,7,8-tetrahydropyrido[4,3-d]pyrimidine] yielded an IC50 of 0.265 nM.
In the case of `CCc1nn(C)c2c1CN(c1ncnn3c(C)nc(C4CCOCC4)c13)CC2` [Example 106, 4-(3-ethyl-1-methyl-1,4,6,7-tetrahydro-5H-pyrazolo[4,3-c]pyridin-5-yl)-7-methyl-5-(tetrahydro-2H-pyran-4-yl)imidazo[5,1-f][1,2,4]triazine] it was 1.44 nM; in that of `Cc1c2c(nn1C)CCN(c1ncnn3c(C)nc(-c4ccccc4F)c13)C2` [Example 113], 0.638 nM; in that of `Cc1nc([C@@H]2CCOC2)c2c(N3CCc4nc(C5CC5)ccc4C3)ncnn12` [Example 154, 2-cyclopropyl-6-{7-methyl-5-[(3S)-tetrahydrofuran-3-yl]imidazo[5,1-f][1,2,4]triazin-4-yl}-5,6,7,8-tetrahydro-1,6-naphthyridine], 0.144 nM.
Molecule `Cc1ccccc1-c1nc(C)n2ncnc(N3CCc4nc(C5CC5)ncc4C3)c12` [Example 24, 2-cyclopropyl-6-[7-methyl-5-(2-methylphenyl)imidazo[5,1-f][1,2,4]triazin-4-yl]-5,6,7,8-tetrahydropyrido[4,3-d]pyrimidine] returned a half-maximal inhibitory concentration (IC50) of less than 3.29 nM.
In the case of `[2H]C([2H])([2H])n1c(C2CC2)nc2c(c1=O)CN(c1ncnn3c(C)nc([C@@H]4CCOC4)c13)CC2` [Example 144] it was 0.0837 nM; in that of `Cc1nn(C)c2c1CN(c1ncnn3c(C)nc(-c4ccc(F)cc4Cl)c13)CC2` [Example 121, 5-(2-chloro-4-fluorophenyl)-4-(1,3-dimethyl-1,4,6,7-tetrahydro-5H-pyrazolo[4,3-c]pyridin-5-yl)-7-methylimidazo[5,1-f][1,2,4]triazine], 1.35 nM.
